# Measurements taken from US6448405B1, “Steroid receptor modulator compounds and methods” (Ligand Pharmaceuticals Incorporated, priority 1994, dated 2002).
# Read-outs that look alike come from different tables or passages of the source.
# Assays:
# [1] = test system: PR, AR, ER, GR and MR; assay: cis-trans or co-transfection assay, steroid receptor panel (cross-reactivity); type: cell-based, human; settings: as seen in the Tables
# [2] = target: T1, human progesterone receptor A form (PR-A) (Homo sapiens, UniProt P06401); assay: PR binding assay, baculovirus extract, [3H] progesterone
# T1 sequence (P06401 1-769 isoform P06401-2): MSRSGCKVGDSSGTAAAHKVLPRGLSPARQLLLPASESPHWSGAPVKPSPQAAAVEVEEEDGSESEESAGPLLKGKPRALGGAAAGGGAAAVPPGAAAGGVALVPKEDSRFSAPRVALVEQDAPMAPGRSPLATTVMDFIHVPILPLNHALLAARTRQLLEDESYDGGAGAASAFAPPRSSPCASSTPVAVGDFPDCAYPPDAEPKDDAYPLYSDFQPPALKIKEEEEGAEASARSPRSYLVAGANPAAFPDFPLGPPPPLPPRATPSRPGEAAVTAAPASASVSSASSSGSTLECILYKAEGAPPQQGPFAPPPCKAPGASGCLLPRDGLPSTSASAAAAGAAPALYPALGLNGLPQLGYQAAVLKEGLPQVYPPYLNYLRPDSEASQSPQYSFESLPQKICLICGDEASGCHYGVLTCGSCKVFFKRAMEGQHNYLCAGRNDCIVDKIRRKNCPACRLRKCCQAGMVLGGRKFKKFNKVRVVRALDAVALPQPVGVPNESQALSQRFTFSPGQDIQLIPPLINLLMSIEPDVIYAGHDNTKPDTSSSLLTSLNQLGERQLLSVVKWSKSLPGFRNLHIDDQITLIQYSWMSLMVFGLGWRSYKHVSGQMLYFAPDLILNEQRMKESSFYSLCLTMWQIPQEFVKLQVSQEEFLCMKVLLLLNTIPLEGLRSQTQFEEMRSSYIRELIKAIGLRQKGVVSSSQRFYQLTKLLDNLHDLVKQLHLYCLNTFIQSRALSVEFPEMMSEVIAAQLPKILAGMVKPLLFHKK
# [3] = target: T2, human PR-B (Homo sapiens, UniProt P06401); assay: Co-transfection assay, PR agonist and antagonist activity, CV-1 cells; type: cell-based; settings: for IC50: read-out: PR Antagonist CV-1 Cells Potency;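 on all read-outs here: luciferase reporter driven by a hormone response element, co-transfected with human PR-B into CV-1 monkey kidney cells, agonists raise and antagonists lower the reporter signal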
# T2 construct: expressed in transfected cells; host or cells: CV-1 cells (African green monkey kidney fibroblasts), transient transfection
# T2 sequence (P06401 1-933): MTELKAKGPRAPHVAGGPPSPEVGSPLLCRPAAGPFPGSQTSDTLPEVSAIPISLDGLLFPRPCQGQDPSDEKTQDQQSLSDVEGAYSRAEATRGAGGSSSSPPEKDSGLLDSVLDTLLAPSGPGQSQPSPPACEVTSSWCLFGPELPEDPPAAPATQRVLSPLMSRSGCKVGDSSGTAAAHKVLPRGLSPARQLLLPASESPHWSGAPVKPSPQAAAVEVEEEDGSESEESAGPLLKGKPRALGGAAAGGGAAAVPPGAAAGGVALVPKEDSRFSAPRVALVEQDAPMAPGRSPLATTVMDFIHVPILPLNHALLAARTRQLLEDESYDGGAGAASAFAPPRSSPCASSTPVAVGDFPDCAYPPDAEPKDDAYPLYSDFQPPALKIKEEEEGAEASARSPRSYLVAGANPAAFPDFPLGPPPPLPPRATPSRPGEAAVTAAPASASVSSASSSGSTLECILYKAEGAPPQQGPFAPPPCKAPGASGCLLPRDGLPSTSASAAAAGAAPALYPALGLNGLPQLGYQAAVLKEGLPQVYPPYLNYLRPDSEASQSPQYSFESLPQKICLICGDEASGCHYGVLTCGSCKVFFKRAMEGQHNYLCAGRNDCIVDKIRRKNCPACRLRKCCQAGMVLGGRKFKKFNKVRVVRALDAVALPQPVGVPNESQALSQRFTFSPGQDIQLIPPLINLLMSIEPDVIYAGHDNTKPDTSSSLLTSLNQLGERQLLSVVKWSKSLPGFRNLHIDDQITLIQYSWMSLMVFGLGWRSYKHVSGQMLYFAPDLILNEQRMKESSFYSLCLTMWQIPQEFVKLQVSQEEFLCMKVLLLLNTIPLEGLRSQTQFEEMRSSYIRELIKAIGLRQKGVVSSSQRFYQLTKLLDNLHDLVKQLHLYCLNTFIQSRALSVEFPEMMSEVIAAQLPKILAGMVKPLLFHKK
# [4] = target: T3, human mineralocorticoid receptor (MR) (Homo sapiens, UniProt P08235); assay: Co-transfection assay, MR antagonist activity, CV-1 cells (pRShMR); type: cell-based; settings: Table 4; antagonist mode; % maximal inhibition
# T3 construct: expressed in transfected cells; host or cells: CV-1 cells, transient transfection
# T3 sequence (P08235 1-984): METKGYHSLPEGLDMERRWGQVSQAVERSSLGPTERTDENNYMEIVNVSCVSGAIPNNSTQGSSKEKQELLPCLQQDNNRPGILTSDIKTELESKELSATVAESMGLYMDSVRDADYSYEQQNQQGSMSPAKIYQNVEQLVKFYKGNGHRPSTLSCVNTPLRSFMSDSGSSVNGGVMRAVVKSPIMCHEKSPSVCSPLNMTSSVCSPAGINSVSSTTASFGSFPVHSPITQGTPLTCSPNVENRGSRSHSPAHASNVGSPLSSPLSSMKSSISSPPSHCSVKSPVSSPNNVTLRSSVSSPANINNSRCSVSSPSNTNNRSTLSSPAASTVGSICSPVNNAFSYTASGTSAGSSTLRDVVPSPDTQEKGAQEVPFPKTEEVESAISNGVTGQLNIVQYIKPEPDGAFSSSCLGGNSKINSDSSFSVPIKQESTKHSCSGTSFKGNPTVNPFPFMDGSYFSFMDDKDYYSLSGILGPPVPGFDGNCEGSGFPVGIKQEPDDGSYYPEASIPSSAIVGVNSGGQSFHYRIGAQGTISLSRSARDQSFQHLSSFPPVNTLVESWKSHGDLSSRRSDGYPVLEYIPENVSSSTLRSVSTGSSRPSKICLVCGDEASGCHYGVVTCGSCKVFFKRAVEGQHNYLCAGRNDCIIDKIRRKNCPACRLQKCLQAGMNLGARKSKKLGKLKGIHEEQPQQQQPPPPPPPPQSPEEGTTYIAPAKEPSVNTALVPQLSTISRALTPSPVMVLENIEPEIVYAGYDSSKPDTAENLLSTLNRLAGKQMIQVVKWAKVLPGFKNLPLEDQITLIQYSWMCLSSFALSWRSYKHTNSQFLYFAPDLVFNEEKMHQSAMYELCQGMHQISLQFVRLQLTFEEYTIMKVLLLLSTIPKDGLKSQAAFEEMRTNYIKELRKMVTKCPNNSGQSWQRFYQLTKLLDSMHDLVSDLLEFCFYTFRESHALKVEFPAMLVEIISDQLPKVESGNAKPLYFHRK
# [5] = target: T4, human glucocorticoid receptor (GR) (Homo sapiens, UniProt P04150); assay: Co-transfection assay, GR antagonist activity, CV-1 cells (pRShGR); type: cell-based; settings: for GR Antagonist CV-1 Cells Efficacy (%): Table 4, antagonist mode, % maximal inhibition
# T4 construct: expressed in transfected cells; host or cells: CV-1 cells, transient transfection
# T4 sequence (P04150 1-777): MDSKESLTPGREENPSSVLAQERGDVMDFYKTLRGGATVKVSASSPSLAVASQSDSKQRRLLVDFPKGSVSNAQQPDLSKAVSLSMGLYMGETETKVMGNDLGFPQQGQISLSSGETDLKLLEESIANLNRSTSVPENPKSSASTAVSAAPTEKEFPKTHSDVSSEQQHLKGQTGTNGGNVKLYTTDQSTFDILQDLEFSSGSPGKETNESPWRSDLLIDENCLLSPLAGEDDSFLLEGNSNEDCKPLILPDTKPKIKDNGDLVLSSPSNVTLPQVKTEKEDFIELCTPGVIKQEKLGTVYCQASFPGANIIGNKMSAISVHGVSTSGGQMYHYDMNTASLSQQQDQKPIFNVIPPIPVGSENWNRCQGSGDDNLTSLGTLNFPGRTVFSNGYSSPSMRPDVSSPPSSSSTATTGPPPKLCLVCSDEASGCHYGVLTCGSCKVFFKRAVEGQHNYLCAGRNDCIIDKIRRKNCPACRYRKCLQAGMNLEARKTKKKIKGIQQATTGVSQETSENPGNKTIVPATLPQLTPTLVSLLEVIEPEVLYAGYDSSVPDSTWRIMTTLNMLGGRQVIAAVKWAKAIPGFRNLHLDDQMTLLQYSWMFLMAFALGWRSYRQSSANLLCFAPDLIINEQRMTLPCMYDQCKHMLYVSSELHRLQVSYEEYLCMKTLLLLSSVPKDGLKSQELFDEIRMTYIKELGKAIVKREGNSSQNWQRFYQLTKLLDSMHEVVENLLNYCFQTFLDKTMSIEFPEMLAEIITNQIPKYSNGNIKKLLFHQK
# [6] = test system: uterine wet weight in ovariectomized Sprague-Dawely rats; assay: Uterine wet weight assay (PR agonists); type: in vivo, rat; settings: for effect on uterine wet weight when co-administered with estrone: MPA and Compound 210 at 0.3, 1.0 and 3.0 mg/rat, Compound 163 at 3 mg/rat
# Text: The effectiveness of selected compounds of the present invention as PR agonists was investigated in the well recognized uterine wet weight assay, as described in G. J. Marcus, “Mitosis in the rat uterus during the estrous cycle, early pregnancy and early pseudopregnancy”, 10 Biol. Reprod., 447 (1974), S. […] J. Obstet. […] I. Dorfman, “Estrogens” (Ch. 2) and “Antiestrogens” (Ch. 3). in Methods in Hormone Research, ed. R. I. Dorfman, Academic Press, New York, New York, pp101-130 (1969), the disclosures of which are herein incorporated by reference. Four to five week old, ovariectomized, Sprague-Dawely rats (Harlan-Sprague-Dawely, Indianapolis, Ind.) were obtained 1 week after surgery and allowed to acclimate for an additional week after shipment. […] Louis, Mo.) a synthetic estrogen agonist, were fully dissolved in purified sesame oil (Croda, Parsippany, N.J.). […] Additional control groups of rats were administered estrone or vehicle (i.e. sesame oil) alone. Animals were sacrificed on the fourth day of the experiment.
# [7] = agonist mode, EC50, read-out: PR Agonist CV-1 Cells Potency
# [8] = 0.3 mg/rat oral once a day for three days + E1 10 μg
# [9] = 1.0 mg/rat oral once a day for three days + E1 10 μg
# [10] = 3.0 mg/rat oral once a day for three days + E1 10 μg
compound,measurement,setting,value
"CC1=CC(C)(C)Nc2cc3c(cc21)-c1ccc(F)cc1C3 [Compound 124, 8-Fluoro-1,2-dihydro-2,2,4-trimethylindeno[1,2-g]quinoline]",steroid receptor selectivity profile,[1],highly selective PR antagonists
same,Ki,[2],0.004 µM
same,EC50,[3],1.6 µM
same,PR Agonist CV-1 Cells Efficacy (%),"[3]; agonist mode, percent maximal response relative to reference agonist progesterone",74%
same,PR Antagonist CV-1 Cells Efficacy (%),"[3]; antagonist mode, progesterone at its EC50, % maximal inhibition",36%
same,IC50,"[3]; antagonist mode, progesterone at its EC50, IC50",0.01 µM
"CC1=CC(C)(C)Nc2ccc3c(c21)/C(=C/c1ccccc1C)Oc1ccc(F)cc1-3 [Compound 374, (Z)-9-Fluoro-1,2-dihydro-2,2,4-trimethyl-5-(2-methylbenzylidene)-5H-chromeno[3,4-f]quinoline]",steroid receptor selectivity profile,[1],highly selective PR agonists
same,Ki,[2],0.0005 µM
same,PR Agonist CV-1 Cells Efficacy (%),[3],231%
same,PR Antagonist CV-1 Cells Efficacy (%),[3],"na (na = not active (i.e. efficacy or <20 and potency of >10,000))"
same,EC50,[3]; [7],0.004 µM
same,IC50,[3],> 10 µM
"CC#C[C@]1(O)CC[C@H]2[C@@H]3CCC4=CC(=O)CCC4=C3[C@@H](c3ccc(N(C)C)cc3)C[C@@]21C [RU486, (11 beta, 17 beta)-11-[4-(dimethylamino)phenyl]-17-hydroxy-17-(1-propynyl)estra-4,9-dien-3-one, reference compound]",MR Antagonist CV-1 Cells Efficacy (%),[4],77%
same,GR Antagonist CV-1 Cells Efficacy (%),[5],100%
"CCCCC1Oc2ccc(F)cc2-c2ccc3c(c21)C(C)=CC(C)(C)N3 (racemic) [Compound 210, (R/S)-5-Butyl-9-fluoro-1,2-dihydro-2,2,4-trimethyl-5H-chromeno[3,4-f]quinoline]",Mean Uterine Wet Weight,[6]; [8],110 mg
same,Mean Uterine Wet Weight,[6]; [9],100 mg
same,Mean Uterine Wet Weight,[6]; [10],100 mg
same,effect on uterine wet weight when co-administered with estrone,[6],decreased by approximately half
"CC(=O)O[C@]1(C(C)=O)CC[C@H]2[C@@H]3C[C@H](C)C4=CC(=O)CC[C@]4(C)[C@H]3CC[C@@]21C [MPA, medroxyprogesterone acetate, reference compound]",Mean Uterine Wet Weight,[6]; [8],140 mg
same,Mean Uterine Wet Weight,[6]; [9],130 mg
same,Mean Uterine Wet Weight,[6]; [10],130 mg
same,effect on uterine wet weight when co-administered with estrone,[6],significantly decreased
"CC1=CC(C)(C)Nc2ccc3c(c21)C(c1cccc(F)c1)Oc1ccccc1-3 (racemic) [Compound 191, (R/S)-5-(3-Fluorophenyl)-1,2-dihydro-2,2,4-trimethyl-5H-chromeno[3,4-f]quinoline]",steroid receptor selectivity profile,[1],highly selective PR agonists
same,Ki,[2]; read-out: PR Binding Ki,0.001 µM
same,EC50,[3]; [7],0.009 µM
same,IC50,[3],0.15 µM
"CC1CC(C)(C)Nc2ccc(-c3cc(F)cc(C#N)c3)cc21 (racemic) [Compound 455, (R/S)-6-(3-Cyano-5-Fluorophenyl)-1,2,3,4-Tetrahydro-2,2,4-trimethylquinoline]",steroid receptor selectivity profile,[1],highly selective PR antagonists
same,Ki,[2]; read-out: PR Binding Ki,0.01 µM
same,PR Agonist CV-1 Cells Efficacy (%),[3],"na (na = not active (i.e. efficacy or <20 and potency of >10,000))"
same,PR Antagonist CV-1 Cells Efficacy (%),[3],76%
same,EC50,[3]; [7],> 10 µM
same,IC50,[3],0.035 µM
"CC(=O)S[C@@H]1CC2=CC(=O)CC[C@]2(C)[C@H]2CC[C@@]3(C)[C@@H](CC[C@@]34CCC(=O)O4)[C@H]12 [Spir, reference compound]",MR Antagonist CV-1 Cells Efficacy (%),[4],96%
same,IC50,[5],2 µM
same,GR Antagonist CV-1 Cells Efficacy (%),[5],80%
